Experimental data from ChEMBL document CHEMBL5241092, “The antibacterial activity of fluoroquinolone derivatives: An update (2018-2021)” (2021).
In brackets after ≈: the same amount, converted by molar mass.

Key:
Staphylococcus aureus [1] = test: Antibacterial activity against Staphylococcus aureus; format: functional
Staphylococcus aureus [2] = test: Antibacterial activity against methicillin resistant Staphylococcus aureus; format: functional
Staphylococcus aureus [3] = test: Antibacterial activity against ciprofloxacin resistant Staphylococcus aureus; format: functional
Escherichia coli [4] = test: Antibacterial activity against ciprofloxacin resistant Escherichia coli; format: functional
Escherichia coli [5] = test: Antibacterial activity against Escherichia coli; format: functional
Staphylococcus aureus [6] = test: Antibacterial activity against methicillin resistant Staphylococcus aureus reference strain; format: functional
Klebsiella pneumoniae = test: Antibacterial activity against Klebsiella pneumoniae; format: functional
Pseudomonas aeruginosa [7] = test: Antibacterial activity against Pseudomonas aeruginosa; format: functional
Staphylococcus aureus [8] = test: Antibacterial activity against methicillin resistant Staphylococcus aureus clinical strain; format: functional
Shigella flexneri = test: Antibacterial activity against Shigella flexneri; format: functional
[9] = test system: Staphylococcus epidermidis; test: Antibacterial activity against Staphylococcus epidermidis; format: functional
[10] = Antibacterial activity against Salmonella typhi; format: functional, Salmonella enterica subsp. enterica serovar Typhimurium; settings: Salmonella enterica
Citrobacter freundii = test: Antibacterial activity against Citrobacter freundii; format: functional
Vibrio cholerae = test: Antibacterial activity against Vibrio cholerae; format: functional
Bacillus subtilis = test: Antibacterial activity against Bacillus subtilis; format: functional
Serratia marcescens = test: Antibacterial activity against Serratia marcescens; format: functional
Staphylococcus aureus [11] = test: Antibacterial activity against methicillin susceptible Staphylococcus aureus; format: functional
Streptococcus pneumoniae = test: Antibacterial activity against Streptococcus pneumoniae; format: functional
Pseudomonas aeruginosa [12] = test: Antibacterial activity against quinolone susceptible Pseudomonas aeruginosa; format: functional
Escherichia coli [13] = test: Antibacterial activity against quinolone resistant Escherichia coli; format: functional
Acinetobacter baumannii = test: Antibacterial activity against quinolone resistant Acinetobacter baumannii; format: functional
Clostridioides difficile = test: Antibacterial activity against Clostridioides difficile; format: functional
Salmonella enteritidis = test: Antibacterial activity against Salmonella enteritidis; format: functional, Salmonella enterica subsp. enterica serovar Enteritidis; settings: Salmonella enterica
[14] = test system: Yersinia pseudotuberculosis; test: Antibacterial activity against Yersinia pseudotuberculosis; format: functional
Enterococcus faecalis = test: Antibacterial activity against Enterococcus faecalis; format: functional
Bacillus cereus = test: Antibacterial activity against Bacillus cereus; format: functional

`O=C(O)c1cn(-c2ccc(F)cc2)c2cc(N3CCN(Cc4nc5cc(Cl)ccc5c(=O)[nH]4)CC3)c(F)cc2c1=O` showed an MIC (Staphylococcus aureus [1]) of 0.125 µg/mL (≈ 0.216 µM) and an MIC (Staphylococcus aureus [2]) of 0.125 µg/mL (≈ 0.216 µM).

`O=C(O)c1cn(C2CC2)c2cc(N3CCN(Cc4nc5cc(Cl)ccc5c(=O)[nH]4)CC3)c(F)cc2c1=O` showed an MIC (Staphylococcus aureus [1]) of 0.016 µg/mL (≈ 0.0305 µM) and an MIC (Staphylococcus aureus [2]) of 0.016 µg/mL (≈ 0.0305 µM).

Work on `COc1ccc2nc(CN3CCN(c4cc5c(cc4F)c(=O)c(C(=O)O)cn5-c4ccc(F)cc4)CC3)[nH]c(=O)c2c1` yielded an MIC (Staphylococcus aureus [1]) of 0.125 µg/mL (≈ 0.218 µM) and an MIC (Staphylococcus aureus [2]) of 0.125 µg/mL (≈ 0.218 µM).

With `O=C(O)c1cn(-c2ccc(F)cc2)c2cc(N3CCN(Cc4nc5ccccc5c(=O)[nH]4)CC3)c(F)cc2c1=O` the MIC (Staphylococcus aureus [1]) was 0.125 µg/mL (≈ 0.23 µM) and the MIC (Staphylococcus aureus [2]) was 0.125 µg/mL (≈ 0.23 µM).

Work on `Cc1nc(Cl)nc(N2CCN(c3cc4c(cc3F)c(=O)c(C(=O)O)cn4C3CC3)CC2)c1N` yielded an MIC (Staphylococcus aureus [3]) of 7.4 µg/mL (≈ 15.6 µM) and an MIC (Escherichia coli [4]) of 7.4 µg/mL (≈ 15.6 µM).

Compound `O=C(O)c1cn(C2CC2)c2cc(N3CCN(Cc4c(O)ccc5ccccc45)CC3)c(F)cc2c1=O` has an MIC (Escherichia coli [5]) of 0.012 µg/mL (≈ 0.0246 µM), an MIC (Staphylococcus aureus [6]) of 0.012 µg/mL (≈ 0.0246 µM) and an MIC (Klebsiella pneumoniae) of 0.012 µg/mL (≈ 0.0246 µM). The MIC (Pseudomonas aeruginosa [7]) was 0.012 µg/mL (≈ 0.0246 µM) and the MIC (Staphylococcus aureus [8]) was 0.012 µg/mL (≈ 0.0246 µM).

`O=C(O)c1cn(C2CC2)c2cc(N3CCN(CN4c5ccccc5C(=O)N(c5ccc(Cl)cc5)C4c4ccccc4)CC3)c(F)cc2c1=O` (stereo not given) gave an MIC (Shigella flexneri) of 0.1 µg/mL (≈ 0.147 µM), an MIC [9] of 0.1 µg/mL (≈ 0.147 µM) and an MIC (Staphylococcus aureus [1]) of 0.1 µg/mL (≈ 0.147 µM). For the same compound, the MIC [10] was 0.1 µg/mL (≈ 0.147 µM), the MIC (Klebsiella pneumoniae) was 0.1 µg/mL (≈ 0.147 µM) and the MIC (Citrobacter freundii) was 0.1 µg/mL (≈ 0.147 µM). For the same compound, the MIC (Vibrio cholerae) was 0.1 µg/mL (≈ 0.147 µM) and the MIC (Pseudomonas aeruginosa [7]) was 0.1 µg/mL (≈ 0.147 µM).

Work on `COc1ccc2nc(CN3CCN(c4cc5c(cc4F)c(=O)c(C(=O)O)cn5C4CC4)CC3)[nH]c(=O)c2c1` yielded an MIC (Staphylococcus aureus [1]) of 0.016 µg/mL (≈ 0.0308 µM) and an MIC (Staphylococcus aureus [2]) of 0.016 µg/mL (≈ 0.0308 µM).

Work on `O=C(CN1CCN(c2cc3c(cc2F)c(=O)c(C(=O)O)cn3-c2ccc(F)cc2)CC1)c1ccc(Cl)cc1` yielded an MIC (Bacillus subtilis) of 0.5 µg/mL (≈ 0.929 µM), an MIC (Escherichia coli [5]) of 0.5 µg/mL (≈ 0.929 µM) and an MIC [9] of 0.5 µg/mL (≈ 0.929 µM). It also gave an MIC (Serratia marcescens) of 0.5 µg/mL (≈ 0.929 µM), an MIC (Staphylococcus aureus [1]) of 0.5 µg/mL (≈ 0.929 µM) and an MIC (Klebsiella pneumoniae) of 0.5 µg/mL (≈ 0.929 µM). The MIC (Pseudomonas aeruginosa [7]) was 0.5 µg/mL (≈ 0.929 µM).

In the case of `O=C(O)c1cn(C2CC2)c2cc(N3CCN(CN4c5ccccc5C(=O)N(c5ccc(Br)cc5)C4c4ccccc4)CC3)c(F)cc2c1=O` (stereo not given), the MIC (Shigella flexneri) is reported as 0.1 µg/mL (≈ 0.138 µM), the MIC [9] is reported as 0.1 µg/mL (≈ 0.138 µM) and the MIC (Staphylococcus aureus [1]) is reported as 0.1 µg/mL (≈ 0.138 µM). The MIC [10] was 0.1 µg/mL (≈ 0.138 µM), the MIC (Klebsiella pneumoniae) was 0.1 µg/mL (≈ 0.138 µM) and the MIC (Citrobacter freundii) was 0.1 µg/mL (≈ 0.138 µM). The MIC (Vibrio cholerae) was 0.1 µg/mL (≈ 0.138 µM) and the MIC (Pseudomonas aeruginosa [7]) was 0.1 µg/mL (≈ 0.138 µM).

`O=C(O)c1cn(C2CC2)c2cc(N3CCN(Cc4nc5ccc(Cl)cc5c(=O)[nH]4)CC3)c(F)cc2c1=O` gave an MIC (Staphylococcus aureus [1]) of 0.016 µg/mL (≈ 0.0305 µM) and an MIC (Staphylococcus aureus [2]) of 0.016 µg/mL (≈ 0.0305 µM).

Compound `COc1cc(C=O)cc(CN2CCN(c3cc4c(cc3F)c(=O)c(C(=O)O)cn4C3CC3)CC2)c1O` has an MIC (Escherichia coli [5]) of 0.012 µg/mL (≈ 0.0242 µM), an MIC (Staphylococcus aureus [6]) of 0.012 µg/mL (≈ 0.0242 µM) and an MIC (Klebsiella pneumoniae) of 0.012 µg/mL (≈ 0.0242 µM). For the same compound, the MIC (Pseudomonas aeruginosa [7]) was 0.012 µg/mL (≈ 0.0242 µM) and the MIC (Staphylococcus aureus [8]) was 0.012 µg/mL (≈ 0.0242 µM).

`COc1c(N2CCNC(C)C2)c(F)cc2c(=O)c(C(=O)O)cn(C3CC3)c12` (stereo not given) [GATIFLOXACIN] showed an MIC (Staphylococcus aureus [1]) of 0.06 µg/mL (≈ 0.16 µM), an MIC (Staphylococcus aureus [11]) of 0.06 µg/mL (≈ 0.16 µM) and an MIC (Streptococcus pneumoniae) of 0.06 µg/mL (≈ 0.16 µM).

For `C[C@H]1COc2c(N3CCN(C)CC3)c(F)cc3c(=O)c(C(=O)O)cn1c23.C[C@H]1COc2c(N3CCN(C)CC3)c(F)cc3c(=O)c(C(=O)O)cn1c23.O` [LEVOFLOXACIN], the MIC (Pseudomonas aeruginosa [12]) was 0.015 µg/mL, the MIC (Escherichia coli [13]) was 4 µg/mL and the MIC (Acinetobacter baumannii) was 4 µg/mL. The MIC50 (Clostridioides difficile) was 128 µg/mL and the MIC90 (Clostridioides difficile) was > 128 µg/mL.

For `Cc1ncc([N+](=O)[O-])n1CCO` [METRONIDAZOLE], the MIC50 (Clostridioides difficile) was 2 µg/mL (≈ 11.7 µM) and the MIC90 (Clostridioides difficile) was 4 µg/mL (≈ 23.4 µM).

In the case of `CCn1cc(C(=O)O)c(=O)c2cc(F)c(N3CCNCC3)cc21` [NORFLOXACIN], the MIC (Salmonella enteritidis) is reported as 0.0625 µg/mL (≈ 0.196 µM), the MIC [14] is reported as < 0.24 µg/mL and the MIC (Escherichia coli [5]) is reported as < 0.24 µg/mL. For the same compound, the MIC (Staphylococcus aureus [1]) was < 0.24 µg/mL, the MIC [10] was 2.4 µg/mL (≈ 7.52 µM) and the MIC (Enterococcus faecalis) was < 0.24 µg/mL. The MIC (Bacillus cereus) was < 0.24 µg/mL and the MIC (Pseudomonas aeruginosa [7]) was < 0.24 µg/mL.

For `O=C(O)c1cn(-c2ccc(F)cc2)c2cc(N3CCNCC3)c(F)cc2c1=O` [SARAFLOXACIN], the MIC (Bacillus subtilis) was < 0.125 µg/mL, the MIC [9] was < 0.125 µg/mL and the MIC (Staphylococcus aureus [1]) was < 0.125 µg/mL.

Compound `CN[C@H](CC(C)C)C(=O)N[C@H]1C(=O)N[C@@H](CC(N)=O)C(=O)N[C@H]2C(=O)N[C@H]3C(=O)N[C@H](C(=O)N[C@H](C(=O)O)c4cc(O)cc(O)c4-c4cc3ccc4O)[C@H](O)c3ccc(c(Cl)c3)Oc3cc2cc(c3O[C@@H]2O[C@H](CO)[C@@H](O)[C@H](O)[C@H]2O[C@H]2C[C@](C)(N)[C@H](O)[C@H](C)O2)Oc2ccc(cc2Cl)[C@H]1O` [VANCOMYCIN] has an MIC50 (Clostridioides difficile) of 2 µg/mL (≈ 1.38 µM) and an MIC90 (Clostridioides difficile) of 4 µg/mL (≈ 2.76 µM).
